± gives the expanded uncertainty stated by the source.
Experiment: xn = mol fraction of the nth substance listed
Conditions: Liquid; for viscosity: Capillary tube (Ostwald / Ubbelohde) method; for mass density: Vibrating tube method
[1] = 313.15 K, 11290 kPa, x2 = 0.519
[2] = 313.15 K, 12320 kPa, x2 = 0.299
[3] = 313.15 K, 12560 kPa, x2 = 0.199
[4] = 313.15 K, 21910 kPa, x2 = 0.519
[5] = 313.15 K, 23100 kPa, x2 = 0.299
[6] = 313.15 K, 23440 kPa, x2 = 0.199
[7] = 313.15 K, 42900 kPa, x2 = 0.519
[8] = 313.15 K, 44510 kPa, x2 = 0.299
[9] = 313.15 K, 45240 kPa, x2 = 0.199
[10] = 313.15 K, 57150 kPa, x2 = 0.519
[11] = 313.15 K, 58570 kPa, x2 = 0.299
[12] = 313.15 K, 60140 kPa, x2 = 0.199
[13] = 313.15 K, 71140 kPa, x2 = 0.519
[14] = 313.15 K, 73410 kPa, x2 = 0.299
[15] = 313.15 K, 74430 kPa, x2 = 0.199
[16] = 338.15 K, 10860 kPa, x2 = 0.519
[17] = 338.15 K, 11180 kPa, x2 = 0.299
[18] = 338.15 K, 11690 kPa, x2 = 0.199
[19] = 338.15 K, 21260 kPa, x2 = 0.519
[20] = 338.15 K, 21990 kPa, x2 = 0.199
[21] = 338.15 K, 21990 kPa, x2 = 0.299
[22] = 338.15 K, 42140 kPa, x2 = 0.519
[23] = 338.15 K, 42690 kPa, x2 = 0.299
[24] = 338.15 K, 42870 kPa, x2 = 0.199
[25] = 338.15 K, 56660 kPa, x2 = 0.519
[26] = 338.15 K, 57330 kPa, x2 = 0.299
[27] = 338.15 K, 57570 kPa, x2 = 0.199
[28] = 338.15 K, 69970 kPa, x2 = 0.199
[29] = 338.15 K, 70400 kPa, x2 = 0.519
[30] = 338.15 K, 71030 kPa, x2 = 0.299
[31] = 363.15 K, 10740 kPa, x2 = 0.519
[32] = 363.15 K, 10840 kPa, x2 = 0.299
[33] = 363.15 K, 11090 kPa, x2 = 0.199
[34] = 363.15 K, 21180 kPa, x2 = 0.299
[35] = 363.15 K, 21340 kPa, x2 = 0.519
[36] = 363.15 K, 21420 kPa, x2 = 0.199
[37] = 363.15 K, 42180 kPa, x2 = 0.519
[38] = 363.15 K, 42250 kPa, x2 = 0.299
[39] = 363.15 K, 42490 kPa, x2 = 0.199
[40] = 363.15 K, 56170 kPa, x2 = 0.519
[41] = 363.15 K, 56390 kPa, x2 = 0.299
[42] = 363.15 K, 56730 kPa, x2 = 0.199
[43] = 363.15 K, 70120 kPa, x2 = 0.519
[44] = 363.15 K, 70320 kPa, x2 = 0.299
[45] = 363.15 K, 70780 kPa, x2 = 0.199

CC(C)CCCC(C)CCCC(C)CCCCC(C)CCCC(C)CCCC(C)C (stereo not drawn) [2,6,10,15,19,23-hexamethyltetracosane] + O=C=O
viscosity (313.15 K, 2790 kPa, x2 = 0.199): 11.4 ± 0.27 mPa·s
mass density (313.15 K, 2790 kPa, x2 = 0.199): 796.7 ± 2.4 kg/m3
viscosity (313.15 K, 3900 kPa, x2 = 0.299): 9.2 ± 0.22 mPa·s
mass density (313.15 K, 3900 kPa, x2 = 0.299): 799.1 ± 2.4 kg/m3
viscosity (313.15 K, 5300 kPa, x2 = 0.519): 5.1 ± 0.14 mPa·s
mass density (313.15 K, 5300 kPa, x2 = 0.519): 804.5 ± 2.4 kg/m3
viscosity [1]: 5.59 ± 0.15 mPa·s
mass density [1]: 810.3 ± 2.5 kg/m3
viscosity [2]: 10.5 ± 0.25 mPa·s
mass density [2]: 805.8 ± 2.4 kg/m3
viscosity [3]: 13.39 ± 0.32 mPa·s
mass density [3]: 804.5 ± 2.4 kg/m3
viscosity [4]: 6.47 ± 0.18 mPa·s
mass density [4]: 819.7 ± 2.5 kg/m3
viscosity [5]: 12.46 ± 0.3 mPa·s
mass density [5]: 813.6 ± 2.5 kg/m3
viscosity [6]: 16.14 ± 0.39 mPa·s
mass density [6]: 812.5 ± 2.5 kg/m3
viscosity [7]: 8.58 ± 0.24 mPa·s
mass density [7]: 836.1 ± 2.6 kg/m3
viscosity [8]: 17.08 ± 0.42 mPa·s
mass density [8]: 828.1 ± 2.5 kg/m3
viscosity [9]: 22.88 ± 0.57 mPa·s
mass density [9]: 826.3 ± 2.5 kg/m3
viscosity [10]: 10.52 ± 0.3 mPa·s
mass density [10]: 846 ± 2.6 kg/m3
viscosity [11]: 21.56 ± 0.53 mPa·s
mass density [11]: 836.5 ± 2.6 kg/m3
viscosity [12]: 28.7 ± 0.7 mPa·s
mass density [12]: 834.5 ± 2.6 kg/m3
viscosity [13]: 12.5 ± 0.37 mPa·s
mass density [13]: 854.8 ± 2.6 kg/m3
viscosity [14]: 26.51 ± 0.65 mPa·s
mass density [14]: 844.9 ± 2.6 kg/m3
viscosity [15]: 35.87 ± 0.87 mPa·s
mass density [15]: 841.6 ± 2.6 kg/m3
viscosity (338.15 K, 3100 kPa, x2 = 0.199): 5.61 ± 0.16 mPa·s
mass density (338.15 K, 3100 kPa, x2 = 0.199): 780.2 ± 2.4 kg/m3
viscosity (338.15 K, 3320 kPa, x2 = 0.299): 4.69 ± 0.12 mPa·s
mass density (338.15 K, 3320 kPa, x2 = 0.299): 782.1 ± 2.4 kg/m3
viscosity (338.15 K, 6440 kPa, x2 = 0.519): 2.96 ± 0.07 mPa·s
mass density (338.15 K, 6440 kPa, x2 = 0.519): 787.1 ± 2.4 kg/m3
viscosity [16]: 3.18 ± 0.08 mPa·s
mass density [16]: 791.5 ± 2.4 kg/m3
viscosity [17]: 5.36 ± 0.13 mPa·s
mass density [17]: 788.3 ± 2.4 kg/m3
viscosity [18]: 6.41 ± 0.17 mPa·s
mass density [18]: 787.3 ± 2.4 kg/m3
viscosity [19]: 3.58 ± 0.09 mPa·s
mass density [19]: 801 ± 2.4 kg/m3
viscosity [20]: 7.61 ± 0.21 mPa·s
viscosity [21]: 6.16 ± 0.16 mPa·s
mass density [20]: 795.1 ± 2.4 kg/m3
mass density [21]: 796.2 ± 2.4 kg/m3
viscosity [22]: 4.78 ± 0.12 mPa·s
mass density [22]: 817.7 ± 2.5 kg/m3
viscosity [23]: 8.3 ± 0.21 mPa·s
mass density [23]: 810.4 ± 2.5 kg/m3
viscosity [24]: 10.48 ± 0.3 mPa·s
mass density [24]: 808.7 ± 2.5 kg/m3
viscosity [25]: 5.67 ± 0.15 mPa·s
mass density [25]: 827.7 ± 2.5 kg/m3
viscosity [26]: 10.09 ± 0.26 mPa·s
mass density [26]: 819.2 ± 2.5 kg/m3
viscosity [27]: 12.79 ± 0.37 mPa·s
mass density [27]: 817.1 ± 2.5 kg/m3
viscosity [28]: 15.43 ± 0.48 mPa·s
mass density [28]: 823.5 ± 2.6 kg/m3
viscosity [29]: 6.59 ± 0.17 mPa·s
mass density [29]: 836.4 ± 2.6 kg/m3
viscosity [30]: 12.17 ± 0.32 mPa·s
mass density [30]: 826.9 ± 2.6 kg/m3
viscosity (363.15 K, 2670 kPa, x2 = 0.199): 3.2 ± 0.08 mPa·s
mass density (363.15 K, 2670 kPa, x2 = 0.199): 763.2 ± 2.3 kg/m3
viscosity (363.15 K, 3820 kPa, x2 = 0.299): 2.86 ± 0.07 mPa·s
mass density (363.15 K, 3820 kPa, x2 = 0.299): 766.2 ± 2.3 kg/m3
viscosity (363.15 K, 7280 kPa, x2 = 0.519): 1.93 ± 0.05 mPa·s
mass density (363.15 K, 7280 kPa, x2 = 0.519): 769.5 ± 2.3 kg/m3
viscosity [31]: 2.06 ± 0.05 mPa·s
mass density [31]: 772.7 ± 2.3 kg/m3
viscosity [32]: 3.14 ± 0.08 mPa·s
mass density [32]: 771.7 ± 2.3 kg/m3
viscosity [33]: 3.71 ± 0.09 mPa·s
mass density [33]: 770.2 ± 2.3 kg/m3
viscosity [34]: 3.59 ± 0.09 mPa·s
mass density [34]: 779.2 ± 2.4 kg/m3
viscosity [35]: 2.31 ± 0.06 mPa·s
mass density [35]: 782.5 ± 2.4 kg/m3
viscosity [36]: 4.33 ± 0.11 mPa·s
mass density [36]: 778.2 ± 2.4 kg/m3
viscosity [37]: 3 ± 0.08 mPa·s
mass density [37]: 799.3 ± 2.5 kg/m3
viscosity [38]: 4.8 ± 0.12 mPa·s
mass density [38]: 793.2 ± 2.4 kg/m3
viscosity [39]: 5.75 ± 0.15 mPa·s
mass density [39]: 792.2 ± 2.4 kg/m3
viscosity [40]: 3.43 ± 0.09 mPa·s
mass density [40]: 809.2 ± 2.5 kg/m3
viscosity [41]: 5.69 ± 0.14 mPa·s
mass density [41]: 801.8 ± 2.5 kg/m3
viscosity [42]: 6.83 ± 0.18 mPa·s
mass density [42]: 800.5 ± 2.5 kg/m3
viscosity [43]: 4.08 ± 0.11 mPa·s
mass density [43]: 818 ± 2.5 kg/m3
viscosity [44]: 6.81 ± 0.17 mPa·s
mass density [44]: 809.6 ± 2.5 kg/m3
viscosity [45]: 8.08 ± 0.21 mPa·s
mass density [45]: 807.9 ± 2.5 kg/m3

Reference: the NIST ThermoML archive (doi:10.1021/acs.jced.8b00786)
